Legend:
[1] = system: A549-DR cells; experiment: MTT cell viability assay with or without DOX; format: cell-based, human; settings: DOX 1 μM, 72 hours, FIG. 7 upper
Procedure: Human lung adenocarcinoma cell line A549 was obtained from the American Type Cell Culture (ATCC, USA). Cell culture was carried out at 37° C. in an atmosphere of 5% CO2 using Dulbecco's Modified Eagle's Medium (DMEM) (SIGMA) supplemented with fetal bovine serum (at a final concentration of 10%), penicillin (at a final concentration of 100 U/mL) and streptomycin (at a final concentration of 100 μg/mL). A549 cells were cultured at 37° C. in an atmosphere of 5% CO2, in DMEM in which the DOX concentration was increased stepwise from 0.01 to 1 μM, and then cells acquiring DOX resistance were selected to generate a DOX-resistant A549 cell line (A549-DR). The resultant A549-DR cells maintained their drug resistance by exposure to 1 μM DOX.
A549-DS, A549-DR, and A549-DR-IL-34-KO cells were cultured in DMEM medium with or without DOX (at a final concentration of 1 μM). After 72 hours of culturing, an MTT assay was performed (using a cell proliferation determination kit, available from Roche Applied) to determine the viability of cells. Similarly, A549-DR cells were cultured in a medium with or without DOX in which an anti-IL-34 neutralizing antibody was added at a final concentration of 0.01 to 10 μg/mL, and the viability of cells was determined in a similar way.

[2] = system: A549-DR tumor; experiment: Tumor size in humanized NOG mice with DOX administration; format: in vivo; settings: DOX 10 mg/kg/mouse intravenously, twice a week, 4 times, vs PBS, FIG. 8
[3] = system: A549-DR-IL-34-KO cells; experiment: MTT cell viability assay with or without DOX; format: cell-based, human; settings: DOX 1 μM, 72 hours, FIG. 7 upper
[4] = system: A549-DR-IL-34-KO tumor; experiment: Tumor size in humanized NOG mice with DOX administration; format: in vivo; settings: DOX 10 mg/kg/mouse intravenously, twice a week, 4 times, vs PBS, FIG. 8

COc1cccc2c1C(=O)c1c(O)c3c(c(O)c1C2=O)C[C@@](O)(C(=O)CO)C[C@@H]3O[C@H]1C[C@H](N)[C@H](O)[C@H](C)O1 [DOX, doxorubicin]
viability of cells [1]: did not have a decreased viability | tumor size [2]: did not change greatly | viability of cells (sensitivity to DOX) [3]: restored the sensitivity to DOX | tumor size [4]: significantly decreased
